Data taken from PubChem BioAssay (NCI).
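The concentration for 50% growth inhibition is given as GI50. TGI: concentration producing complete growth inhibition.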

What was measured:
Test in all cases: growth of human tumour cells (NCI), 384-well format
HCT-116 colon = system: HCT-116 colon
MDA-MB-435 melanoma = system: MDA-MB-435 melanoma
SK-OV-3 ovarian = system: SK-OV-3 ovarian
DU-145 prostate = system: DU-145 prostate
UACC-62 melanoma = system: UACC-62 melanoma
ACHN renal = system: ACHN renal
MOLT-4 leukemia = system: MOLT-4 leukemia
U251 glioblastoma = system: U251 glioblastoma
MCF7 breast = system: MCF7 breast
SW-620 colon = system: SW-620 colon
NCI-H23 lung = system: NCI-H23 lung
RPMI-8226 leukemia = system: RPMI-8226 leukemia
SK-MEL-28 melanoma = system: SK-MEL-28 melanoma
SR leukemia = system: SR leukemia
SF-295 CNS = system: SF-295 CNS
HOP-92 NSCLC = system: HOP-92 NSCLC
K-562 leukemia = system: K-562 leukemia
SK-MEL-5 melanoma = system: SK-MEL-5 melanoma
OVCAR-3 ovarian = system: OVCAR-3 ovarian
MDA-MB-468 breast = system: MDA-MB-468 breast
UACC-257 melanoma = system: UACC-257 melanoma
IGROV1 ovarian = system: IGROV1 ovarian
HL-60(TB) leukemia = system: HL-60(TB) leukemia
A549 NSCLC = system: A549 NSCLC
CAKI-1 renal = system: CAKI-1 renal
LOX IMVI melanoma = system: LOX IMVI melanoma
786-0 renal = system: 786-0 renal
SNB-19 CNS = system: SNB-19 CNS
MDA-MB-231 breast = system: MDA-MB-231 breast
PC-3 prostate = system: PC-3 prostate
COLO 205 colon = system: COLO 205 colon
CCRF-CEM leukemia = system: CCRF-CEM leukemia
NCI-H460 NSCLC = system: NCI-H460 NSCLC
NCI-H522 lung = system: NCI-H522 lung
SK-MEL-2 melanoma = system: SK-MEL-2 melanoma
NCI/ADR-RES ovarian = system: NCI/ADR-RES ovarian
SF-539 CNS = system: SF-539 CNS
T-47D breast = system: T-47D breast
SF-268 CNS = system: SF-268 CNS
NCI-H322M lung = system: NCI-H322M lung
NCI-H226 lung = system: NCI-H226 lung
HCC-2998 colon = system: HCC-2998 colon
HCT-15 colon = system: HCT-15 colon
HT29 colon = system: HT29 colon
UO-31 renal = system: UO-31 renal
OVCAR-8 ovarian = system: OVCAR-8 ovarian
MALME-3M melanoma = system: MALME-3M melanoma
SN12C renal = system: SN12C renal
TK-10 renal = system: TK-10 renal
A498 renal = system: A498 renal
OVCAR-5 ovarian = system: OVCAR-5 ovarian
OVCAR-4 ovarian = system: OVCAR-4 ovarian
RXF 393 renal = system: RXF 393 renal
M14 melanoma = system: M14 melanoma
KM12 colon = system: KM12 colon

Q: For `CCc1cc(Nc2nccc(-c3c(-c4ccc(OC)c(C(=O)Nc5c(F)cccc5F)c4)nc4ccccn34)n2)c(OC)cc1N1CCC(N2CCN(S(C)(=O)=O)CC2)CC1`, which GI50 (HCT-116 colon) is on record?
A: > 100 µM

Q: What about the TGI (HCT-116 colon) of the same compound?
A: > 100 µM

Q: What about the GI50 (MDA-MB-435 melanoma) of the same compound?
A: > 100 µM

Q: And the TGI (MDA-MB-435 melanoma)?
A: > 100 µM

Q: What about the GI50 (SK-OV-3 ovarian) of the same compound?
A: > 100 µM

Q: And the TGI (SK-OV-3 ovarian)?
A: > 100 µM

Q: And the GI50 (DU-145 prostate)?
A: > 100 µM

Q: What about the TGI (DU-145 prostate) of the same compound?
A: > 100 µM

Q: What about the GI50 (UACC-62 melanoma) of the same compound?
A: > 100 µM

Q: And the TGI (UACC-62 melanoma)?
A: > 100 µM

Q: What about the GI50 (ACHN renal) of the same compound?
A: > 100 µM

Q: What about the TGI (ACHN renal) of the same compound?
A: > 100 µM

Q: And the GI50 (MOLT-4 leukemia)?
A: 0.645 µM

Q: And the TGI (MOLT-4 leukemia)?
A: > 100 µM

Q: And the GI50 (U251 glioblastoma)?
A: > 100 µM

Q: What about the TGI (U251 glioblastoma) of the same compound?
A: > 100 µM

Q: What about the GI50 (MCF7 breast) of the same compound?
A: > 100 µM

Q: And the TGI (MCF7 breast)?
A: > 100 µM

Q: And the GI50 (SW-620 colon)?
A: > 100 µM

Q: What about the TGI (SW-620 colon) of the same compound?
A: > 100 µM

Q: And the GI50 (NCI-H23 lung)?
A: > 100 µM

Q: And the TGI (NCI-H23 lung)?
A: > 100 µM

Q: And the GI50 (RPMI-8226 leukemia)?
A: 0.908 µM

Q: And the TGI (RPMI-8226 leukemia)?
A: > 100 µM

Q: And the GI50 (SK-MEL-28 melanoma)?
A: > 100 µM

Q: What about the TGI (SK-MEL-28 melanoma) of the same compound?
A: > 100 µM

Q: What about the GI50 (SR leukemia) of the same compound?
A: 0.932 µM

Q: What about the TGI (SR leukemia) of the same compound?
A: > 100 µM

Q: What about the GI50 (SF-295 CNS) of the same compound?
A: > 100 µM

Q: And the TGI (SF-295 CNS)?
A: > 100 µM

Q: What about the GI50 (HOP-92 NSCLC) of the same compound?
A: > 100 µM

Q: And the TGI (HOP-92 NSCLC)?
A: > 100 µM

Q: And the GI50 (K-562 leukemia)?
A: > 100 µM

Q: And the TGI (K-562 leukemia)?
A: > 100 µM

Q: What about the GI50 (SK-MEL-5 melanoma) of the same compound?
A: > 100 µM

Q: What about the TGI (SK-MEL-5 melanoma) of the same compound?
A: > 100 µM

Q: And the GI50 (OVCAR-3 ovarian)?
A: > 100 µM

Q: What about the TGI (OVCAR-3 ovarian) of the same compound?
A: > 100 µM

Q: What about the GI50 (MDA-MB-468 breast) of the same compound?
A: 0.935 µM

Q: What about the TGI (MDA-MB-468 breast) of the same compound?
A: > 100 µM

Q: What about the GI50 (UACC-257 melanoma) of the same compound?
A: > 100 µM

Q: What about the TGI (UACC-257 melanoma) of the same compound?
A: > 100 µM

Q: And the GI50 (IGROV1 ovarian)?
A: > 100 µM

Q: And the TGI (IGROV1 ovarian)?
A: > 100 µM

Q: And the GI50 (HL-60(TB) leukemia)?
A: > 100 µM

Q: What about the TGI (HL-60(TB) leukemia) of the same compound?
A: > 100 µM

Q: What about the GI50 (A549 NSCLC) of the same compound?
A: > 100 µM

Q: And the TGI (A549 NSCLC)?
A: > 100 µM

Q: What about the GI50 (CAKI-1 renal) of the same compound?
A: > 100 µM

Q: And the TGI (CAKI-1 renal)?
A: > 100 µM

Q: What about the GI50 (LOX IMVI melanoma) of the same compound?
A: > 100 µM

Q: What about the TGI (LOX IMVI melanoma) of the same compound?
A: > 100 µM

Q: And the GI50 ([…]-0 renal)?
A: > 100 µM

Q: What about the TGI (786-0 renal) of the same compound?
A: > 100 µM

Q: And the GI50 (SNB-19 CNS)?
A: > 100 µM

Q: What about the TGI (SNB-19 CNS) of the same compound?
A: > 100 µM

Q: What about the GI50 (MDA-MB-231 breast) of the same compound?
A: 18.6 µM

Q: What about the TGI (MDA-MB-231 breast) of the same compound?
A: > 100 µM

Q: And the GI50 (PC-3 prostate)?
A: > 100 µM

Q: And the TGI (PC-3 prostate)?
A: > 100 µM

Q: What about the GI50 (COLO 205 colon) of the same compound?
A: > 100 µM

Q: And the TGI (COLO 205 colon)?
A: > 100 µM

Q: What about the GI50 (CCRF-CEM leukemia) of the same compound?
A: > 100 µM

Q: What about the TGI (CCRF-CEM leukemia) of the same compound?
A: > 100 µM

Q: And the GI50 (NCI-H460 NSCLC)?
A: > 100 µM

Q: What about the TGI (NCI-H460 NSCLC) of the same compound?
A: > 100 µM

Q: What about the GI50 (NCI-H522 lung) of the same compound?
A: > 100 µM

Q: And the TGI (NCI-H522 lung)?
A: > 100 µM

Q: What about the GI50 (SK-MEL-2 melanoma) of the same compound?
A: > 100 µM

Q: And the TGI (SK-MEL-2 melanoma)?
A: > 100 µM

Q: What about the GI50 (NCI/ADR-RES ovarian) of the same compound?
A: > 100 µM

Q: What about the TGI (NCI/ADR-RES ovarian) of the same compound?
A: > 100 µM

Q: And the GI50 (SF-539 CNS)?
A: > 100 µM

Q: And the TGI (SF-539 CNS)?
A: > 100 µM

Q: And the GI50 (T-47D breast)?
A: 0.587 µM

Q: What about the TGI (T-47D breast) of the same compound?
A: > 100 µM

Q: What about the GI50 (SF-268 CNS) of the same compound?
A: > 100 µM

Q: And the TGI (SF-268 CNS)?
A: > 100 µM

Q: What about the GI50 (NCI-H322M lung) of the same compound?
A: > 100 µM

Q: What about the TGI (NCI-H322M lung) of the same compound?
A: > 100 µM

Q: What about the GI50 (NCI-H226 lung) of the same compound?
A: > 100 µM

Q: What about the TGI (NCI-H226 lung) of the same compound?
A: > 100 µM

Q: What about the GI50 (HCC-2998 colon) of the same compound?
A: > 100 µM

Q: What about the TGI (HCC-2998 colon) of the same compound?
A: > 100 µM

Q: And the GI50 (HCT-15 colon)?
A: > 100 µM

Q: What about the TGI (HCT-15 colon) of the same compound?
A: > 100 µM

Q: And the GI50 (HT29 colon)?
A: > 100 µM

Q: And the TGI (HT29 colon)?
A: > 100 µM

Q: And the GI50 (UO-31 renal)?
A: > 100 µM

Q: And the TGI (UO-31 renal)?
A: > 100 µM

Q: And the GI50 (OVCAR-8 ovarian)?
A: 1.79 µM

Q: And the TGI (OVCAR-8 ovarian)?
A: > 100 µM

Q: What about the GI50 (MALME-3M melanoma) of the same compound?
A: > 100 µM

Q: What about the TGI (MALME-3M melanoma) of the same compound?
A: > 100 µM

Q: What about the GI50 (SN12C renal) of the same compound?
A: > 100 µM

Q: And the TGI (SN12C renal)?
A: > 100 µM

Q: What about the GI50 (TK-10 renal) of the same compound?
A: > 100 µM

Q: What about the TGI (TK-10 renal) of the same compound?
A: > 100 µM

Q: And the GI50 (A498 renal)?
A: > 100 µM

Q: What about the TGI (A498 renal) of the same compound?
A: > 100 µM

Q: What about the GI50 (OVCAR-5 ovarian) of the same compound?
A: > 100 µM

Q: What about the TGI (OVCAR-5 ovarian) of the same compound?
A: > 100 µM

Q: And the GI50 (OVCAR-4 ovarian)?
A: > 100 µM

Q: What about the TGI (OVCAR-4 ovarian) of the same compound?
A: > 100 µM

Q: And the GI50 (RXF 393 renal)?
A: 0.75 µM

Q: And the TGI (RXF 393 renal)?
A: > 100 µM

Q: What about the GI50 (M14 melanoma) of the same compound?
A: > 100 µM

Q: What about the TGI (M14 melanoma) of the same compound?
A: > 100 µM

Q: What about the GI50 (KM12 colon) of the same compound?
A: > 100 µM

Q: And the TGI (KM12 colon)?
A: > 100 µM
